From ChEMBL document CHEMBL1201862, “PubChem BioAssay data set” (2004)
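Five concentrations, 48 hours, 96-well plates. GI50 = concentration required for 50% inhibition of growth.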 Calls of active or inactive are those of the source. Rule as the data show it: active = GI50 up to about 1.1 µM and inactive = higher.

Legend:
Assay in all cases: NCI-60 cell line screen, 48 h
786-0 = tested on: 786-0
A498 = tested on: A498
A549 = tested on: A549
CAKI-1 = tested on: CAKI-1
CCRF-CEM = tested on: CCRF-CEM
HCT-116 = tested on: HCT-116
HOP-62 = tested on: HOP-62
IGROV-1 = tested on: IGROV-1
K562 = tested on: K562
LOX IMVI = tested on: LOX IMVI
M14 = tested on: M14
NCI-H522 = tested on: NCI-H522
RXF 393 = tested on: RXF 393
SF-539 = tested on: SF-539
SN12C = tested on: SN12C
TK-10 = tested on: TK-10
UACC-62 = tested on: UACC-62
UO-31 = tested on: UO-31
NCI/ADR-RES = tested on: NCI/ADR-RES

Measured: GI50

c1cnc2c3[nH]cc4[nH]c5ccccc5c4c-3nc2c1
inactive: 786-0 44.4 µM | A498 > 100 µM | A549 > 100 µM | CAKI-1 64.1 µM | CCRF-CEM 24.2 µM | HCT-116 44.7 µM | HOP-62 40.4 µM | IGROV-1 > 100 µM | K562 36.5 µM | LOX IMVI 52.5 µM | M14 > 100 µM | NCI-H522 > 100 µM | RXF 393 93.3 µM | SF-539 93.3 µM | SN12C > 100 µM | TK-10 > 100 µM | UACC-62 > 100 µM | UO-31 42.4 µM

CCOC(=O)[C@]12C(=C(c3ccccc3)O[C@H]3C=CCC[C@H]31)C(=O)C(=O)N2c1ccccc1
inactive: 786-0 > 100 µM | A498 > 100 µM | A549 > 100 µM | CAKI-1 > 100 µM | HCT-116 > 100 µM | HOP-62 > 100 µM | K562 17.5 µM | M14 > 100 µM | NCI-H522 24 µM | NCI/ADR-RES 17.1 µM | RXF 393 > 100 µM | SF-539 > 100 µM | SN12C > 100 µM | TK-10 > 100 µM | UACC-62 > 100 µM | UO-31 > 100 µM

Cc1c2c(n(C)c1C)C(=O)C1C(C2=O)C2(C)c3ccccc3C1(C)c1ccccc12 (configuration not stated)
inactive: 786-0 > 100 µM | A498 > 100 µM | CCRF-CEM > 100 µM | HCT-116 > 100 µM | HOP-62 > 100 µM | IGROV-1 > 100 µM | K562 > 100 µM | LOX IMVI > 100 µM | M14 > 100 µM | NCI/ADR-RES > 100 µM | RXF 393 > 100 µM | SF-539 > 100 µM | TK-10 > 100 µM | UACC-62 > 100 µM | UO-31 > 100 µM

O=C1C[C@@H](c2ccc(O)cc2)[C@@]2(O1)C(=O)O[C@H]([C@@H](O)CO)[C@@H]2O
inactive: 786-0 > 100 µM | A498 > 100 µM | A549 > 100 µM | CAKI-1 > 100 µM | CCRF-CEM > 100 µM | HCT-116 > 100 µM | IGROV-1 > 100 µM | K562 > 100 µM | LOX IMVI > 100 µM | M14 > 100 µM | NCI-H522 > 100 µM | NCI/ADR-RES > 100 µM | SF-539 > 100 µM | SN12C > 100 µM | TK-10 > 100 µM | UACC-62 > 100 µM | UO-31 > 100 µM

Nc1nc(S)nc(C(=O)Nc2nccs2)c1-c1ccccc1
inactive: 786-0 > 100 µM | A498 > 100 µM | A549 > 100 µM | CAKI-1 > 100 µM | CCRF-CEM > 100 µM | HCT-116 > 100 µM | HOP-62 > 100 µM | IGROV-1 > 100 µM | K562 > 100 µM | LOX IMVI > 100 µM | M14 > 100 µM | NCI-H522 > 100 µM | RXF 393 > 100 µM | SF-539 > 100 µM | SN12C > 100 µM | TK-10 > 100 µM | UACC-62 > 100 µM | UO-31 > 100 µM

COc1ccc2c(c1)OC[C@@H]1c3cc4c(cc3O[C@H]21)OCO4
inactive: 786-0 > 100 µM | A498 > 100 µM | A549 > 100 µM | CAKI-1 58.5 µM | CCRF-CEM > 100 µM | HCT-116 > 100 µM | HOP-62 > 100 µM | K562 > 100 µM | LOX IMVI > 100 µM | M14 > 100 µM | NCI-H522 > 100 µM | RXF 393 > 100 µM | SF-539 > 100 µM | TK-10 > 100 µM | UO-31 > 100 µM

CCOC1(OCC)N=C(N)C2(C#N)C3(C(=O)N(C(C)C)N=C3C)C12C#N (configuration not stated)
inactive: 786-0 > 100 µM | A498 > 100 µM | A549 > 100 µM | CAKI-1 > 100 µM | CCRF-CEM 38.5 µM | HCT-116 > 100 µM | HOP-62 > 100 µM | IGROV-1 > 100 µM | K562 > 100 µM | M14 > 100 µM | NCI-H522 79.1 µM | NCI/ADR-RES > 100 µM | RXF 393 > 100 µM | SF-539 > 100 µM | SN12C > 100 µM | UACC-62 > 100 µM | UO-31 > 100 µM

N#C/C(=C1\OC(=O)C(c2ccc(Br)cc2)=C1O)c1ccc(Br)cc1
inactive: 786-0 14.7 µM | A498 15.5 µM | A549 18 µM | CAKI-1 17.3 µM | CCRF-CEM 11.1 µM | HCT-116 17.3 µM | HOP-62 19.2 µM | IGROV-1 14.2 µM | K562 19.3 µM | LOX IMVI 15 µM | M14 14.8 µM | NCI-H522 12.4 µM | RXF 393 12 µM | SF-539 16.1 µM | SN12C 11.2 µM | TK-10 22.1 µM | UACC-62 11.6 µM | UO-31 15.1 µM

COc1cc2c(oc(=O)c3c4oc([Si](C)(C)C)cc4cc(OC)c23)c2cccc(OCc3ccccc3)c12
inactive: 786-0 19.1 µM | A498 31.4 µM | A549 44 µM | CAKI-1 21.4 µM | CCRF-CEM 48.3 µM | HCT-116 43.2 µM | HOP-62 18.8 µM | IGROV-1 50.5 µM | K562 57 µM | LOX IMVI 44 µM | M14 26.3 µM | NCI-H522 36.4 µM | RXF 393 > 33.5 µM | SF-539 20.7 µM | SN12C > 100 µM | TK-10 37.2 µM | UACC-62 17.4 µM | UO-31 > 63.7 µM

O=C(Nc1nnc(S)[nH]1)C(=O)C(C(=O)c1ccc2ccccc2c1)C1OC(=O)c2ccccc21 (configuration not stated)
inactive: 786-0 14.9 µM | A498 > 100 µM | A549 37.5 µM | CAKI-1 30.3 µM | CCRF-CEM 15.5 µM | HCT-116 13.7 µM | HOP-62 14.7 µM | IGROV-1 20.4 µM | K562 21 µM | LOX IMVI 17.8 µM | M14 19.1 µM | NCI-H522 17.6 µM | RXF 393 10.6 µM | SF-539 5.56 µM | SN12C 18.2 µM | TK-10 21.6 µM | UACC-62 15.6 µM | UO-31 15.7 µM

CCOC(=O)Cn1c(=O)[nH]c(=O)c2[nH]cnc21
inactive: 786-0 > 100 µM | A498 > 100 µM | A549 > 100 µM | CCRF-CEM > 100 µM | HCT-116 > 100 µM | HOP-62 > 100 µM | IGROV-1 > 100 µM | K562 > 100 µM | LOX IMVI > 100 µM | M14 > 100 µM | NCI-H522 > 100 µM | RXF 393 > 100 µM | SF-539 > 100 µM | SN12C > 100 µM | TK-10 > 100 µM | UACC-62 > 100 µM | UO-31 > 100 µM
